# Source: patent publication US10179125B2, “Substituted pyridines as bromodomain inhibitors” (Zenith Epigenetics Ltd., priority 2014, dated 2019)
# Tests used:
# [1] = system: cMYC; assay: Inhibition of cMYC expression in MV4-11 cells (real-time PCR); assay type: cell-based, Human; conditions: Homo sapiens, 3 h, cMYC mRNA, read-out: c-myc activity
# Outline: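 MV4-11 cells (2.5×10^4/well) treated 3 h at 37° C with compound in IMDM/10% FBS, 0.1% DMSO vehicle, in triplicate. cMYC mRNA quantified by one-step TaqMan RT-qPCR, Ct normalised to cyclophilin; fold expression relative to DMSO control.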
# [2] = system: hIL-17; assay: Inhibition of hIL-17 mRNA transcription in OKT3-stimulated peripheral blood mononuclear cells; assay type: cell-based; conditions: human PBMC, OKT3 antibody 6 h, read-out: IL-17 activity
# Method: Human peripheral blood mononuclear cells were plated (2.0×10^5 cells per well) in a 96-well plate in 45 μL OpTimizer T Cell expansion media (Life Technologies) containing 20 ng/ml IL-2 and penicillin/streptomycin. The cells were treated with increasing concentrations of the test compound or DMSO (0.1%), and incubated at 37° C., 5% CO2 for 1 h before addition of 10× stock OKT3 antibody at 10 ug/ml in media. Triplicate wells were used for each concentration, Cells were incubated at 37° C., 5% CO2 for 6 h before the cells were harvested. At time of harvest, cells were pelleted by centrifugation at 800 rpm for 5 min. Cells were harvested using the mRNA Catcher PLUS kit according to manufacturer's instructions. The eluted mRNA was then used in a one-step quantitative real-time PCR reaction, using components of the RNA UltraSense™ One-Step Kit (Life Technologies) together with Applied Biosystems TaqMan® primer-probes for hIL-17 and Cyclophilin. Real-time PCR plates were run on a ViiA™ 7 real time PCR machine (Applied Biosystems), data was analyzed, normalizing the Ct values for hIL-17 to an internal control, prior to determining the fold induction of each unknown sample, relative to the control.
# [3] = system: Human AML MV-4-11 cells; assay: Inhibition of cell proliferation in MV4-11 cells (CellTiter Aqueous One); assay type: cell-based; conditions: Homo sapiens, 72 h
# Outline: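 MV4-11 cells (5×10^4/well) in IMDM + 10% FBS were treated with graded compound or 0.1% DMSO for 72 h at 37 °C, 5% CO2, in triplicate. CellTiter Aqueous One was added for 3–4 h and absorbance read at 490 nm. Background-corrected signal was expressed relative to DMSO and used to calculate IC50.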
# [4] = system: hIL-6; assay: Inhibition of hIL-6 mRNA transcription in LPS-stimulated U937 cells; assay type: cell-based, Human; conditions: Homo sapiens, U-937, PMA-differentiated U937 cells, 1 h pretreatment, LPS 3 h, read-out: IL-6 activity
# Outline: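 U937 cells differentiated 3 days with 60 ng/mL PMA, pretreated 1 h with compound (0.1% DMSO), then stimulated with 1 ug/mL E. coli LPS for 3 h at 37 °C. IL-6 mRNA measured by one-step TaqMan qRT-PCR, normalized to cyclophilin; fold expression relative to control, triplicate wells.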
# [5] = target: T1, Brd4 bromodomain 1 (BRD4(1)) (Homo sapiens, UniProt O60885); assay: Inhibition of tetra-acetylated histone H4 binding to BET bromodomain (HTRF/FRET); conditions: His-tagged bromodomain 200 nM, biotinylated tetra-acetylated histone H4 peptide, 2 h room temperature
# T1 construct: made in house; host or cells: E. coli BL21(DE3)
# Outline: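 His-tagged BRD4(1) (200 nM, E. coli-expressed) incubated with biotinylated tetra-acetylated histone H4 peptide (25-50 nM) plus Eu-cryptate streptavidin and XL665 anti-His, with compound (0.2% DMSO), 2 h at room temperature in HEPES pH 7.4 buffer. HTRF 665/620 nm ratio decrease gives IC50.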
# [6] = system: hApoA-I; assay: Up-regulation of hApoA-1 mRNA transcription in Huh7 cells; assay type: cell-based; conditions: EC170, Huh7 cells, 48 h
# Method: In this example, hApoA-I mRNA in tissue culture cells was quantitated to measure the transcriptional up-regulation of hApoA-I when treated with a compound of the present disclosure.
# Huh7 cells (2.5×10^5 per well) were plated in a 96-well plate using 100 μL DMEM per well, (Gibco DMEM supplemented with penicillin/streptomycin and 10% FBS), 72 h before the addition of the compound. The cells are treated with increasing concentrations of the compound or […] (0.1%), and incubated at 37° C., 5% CO2 for 48 h. Spent media was removed from the Huh-7 cells and placed on ice for immediate use with the “LDH cytotoxicity assay Kit II” from Abcam. The cells remaining in the plate were rinsed with 100 μL PBS. Cells were harvested using the mRNA Catcher PLUS kit according to manufacturer's instructions. The eluted mRNA was then used in a one-step quantitative real-time PCR reaction, using components of the RNA UltraSense™ One-Step Kit (Life Technologies) together with Applied Biosystems TaqMan® primer-probes for hApoA-I and Cyclophilin. Real-time PCR plates were run on a ViiA™7 real time PCR machine (Applied Biosystems), data was analyzed, normalizing the Ct values for hApoA-1 to an internal control, prior to determining the fold induction of each unknown sample, relative to the control.
Compound,IC50 [1] [nM],IC50 [2] [nM],IC50 [3] [nM],IC50 [4] [nM],IC50 [5] [nM],ApoA-1 activity [6]
"COc1ncc(-c2c(C)noc2C)cc1NCc1ccc(F)cc1 [Example 6, 5-(3,5-dimethylisoxazol-4-yl)-N-(4-fluorobenzyl)-2-methoxypyridin-3-amine]",300 to 3000,300 to 3000,3000 to 30000,300 to 3000,≤ 300,
"COc1ncc(-c2c(C)noc2C)cc1NCc1ccccc1 [Example 2, N-benzyl-5-(3,5-dimethylisoxazol-4-yl)-2-methoxypyridin-3-amine]",300 to 3000,300 to 3000,300 to 3000,300 to 3000,≤ 300,++ (EC170 value between 0.3 and 3 μM were deemed to be very active (++))
"COc1ncc(-c2c(C)noc2C)cc1OCc1ccccc1 [Example 10, 4-(5-(benzyloxy)-6-methoxypyridin-3-yl)-3,5-dimethylisoxazole]",300 to 3000,3000 to 30000,3000 to 30000,300 to 3000,≤ 300,
"COc1ncc(-c2c(C)noc2C)cc1NCc1ccsc1 [Example 9, 5-(3,5-dimethylisoxazol-4-yl)-2-methoxy-N-(thiophen-3-ylmethyl)pyridin-3-amine]",300 to 3000,300 to 3000,300 to 3000,≤ 300,≤ 300,++ (EC170 value between 0.3 and 3 μM were deemed to be very active (++))
"COc1ncc(-c2c(C)noc2C)cc1NCc1ccc(Cl)cc1 [Example 14, N-(4-chlorobenzyl)-5-(3,5-dimethylisoxazol-4-yl)-2-methoxypyridin-3-amine]",,300 to 3000,3000 to 30000,3000 to 30000,≤ 300,
"COc1ncc(-c2c(C)noc2C)cc1Nc1cccnc1 [Example 1, 5-(3,5-dimethylisoxazol-4-yl)-2-methoxy-N-(pyridin-3-yl)pyridin-3-amine]",3000 to 30000,,3000 to 30000,3000 to 30000,300 to 3000,++ (EC170 value between 0.3 and 3 μM were deemed to be very active (++))
"COc1ncc(-c2c(C)noc2C)cc1OCc1ccc(F)cc1 [Example 32, 4-(5-((4-fluorobenzyl)oxy)-6-methoxypyridin-3-yl)-3,5-dimethylisoxazole]",3000 to 30000,,3000 to 30000,300 to 3000,≤ 300,
"COc1ncc(-c2c(C)noc2C)cc1NCc1ccc(C#N)cc1 [Example 11, 4-(((5-(3,5-dimethylisoxazol-4-yl)-2-methoxypyridin-3-yl)amino)methyl)benzonitrile]",300 to 3000,300 to 3000,3000 to 30000,300 to 3000,≤ 300,

# Second part, led by results:
IC50 [1] [nM],IC50 [2] [nM],IC50 [3] [nM],IC50 [4] [nM],IC50 [5] [nM],Compound,ApoA-1 activity [6]
300 to 3000,300 to 3000,300 to 3000,≤ 300,≤ 300,"CNc1ncc(-c2c(C)noc2C)cc1NCc1ccccc1 [Example 45, N3-benzyl-5-(3,5-dimethylisoxazol-4-yl)-N2-methylpyridine-2,3-diamine]",
≤ 300,300 to 3000,300 to 3000,≤ 300,≤ 300,"COc1ncc(-c2c(C)noc2C)cc1Nc1c(C)noc1C [Example 43, N-(5-(3,5-dimethylisoxazol-4-yl)-2-methoxypyridin-3-yl)-3,5-dimethylisoxazol-4-amine]",
3000 to 30000,,3000 to 30000,300 to 3000,300 to 3000,"COc1ncc(-c2c(C)noc2C)cc1Oc1cccnc1C [Example 66, 4-(6-methoxy-5-((2-methylpyridin-3-yl)oxy)pyridin-3-yl)-3,5-dimethylisoxazole]",
300 to 3000,,300 to 3000,3000 to 30000,≤ 300,"COc1ncc(-c2c(C)noc2C)cc1Nc1ccc(Cl)cc1 [Example 36, N-(4-chlorophenyl)-5-(3,5-dimethylisoxazol-4-yl)-2-methoxypyridin-3-amine]",
